Experimental findings from patent US20190274290A1, “GENETICALLY MODIFIED MOUSE MODEL FOR HUMAN HEPATOCYTE XENOTRANSPLANTATION” (The Jackson Laboratory, priority 2016, published 2019) are described below.

The test system of experiment [1] is NSG-PiZ mice. Put plainly: Human hepatocyte engraftment in NSG-PiZ mice, serum human albumin ELISA. The following applies: for human hepatocyte engraftment (serum human albumin), comparison of groups: two doses of 50 mg/kg intraperitoneal MCT 14 and 7 days before engraftment, 50 mg/kg. The experiment is classed as in vivo, mouse. Here is the method: Human albumin levels were evaluated post-engraftment by using the human Albumin ELISA quantitation set (Bethyl Labs) as described by the manufacturer. For all assays, after incubation with the HRP-conjugated antibody, 3,3′,5,5′-tetramethylbenzidine (TMB) peroxidase substrate (KPL) was applied, and the reactions were stopped by adding 2 […] (Fisher Scientific) after 15-30 min. Plates were read at […] on a VersaMax microplate reader (Molecular Devices).
Animals were pre-treated with 50 mg/kg MCT (Oakwood Chemical) intraperitoneally 7 days or 14 and 7 days prior to engraftment or treated at the time of engraftment with 1 μg purified NA/LE hamster anti-mouse CD95 antibody (first apoptosis signal [FAS], BD PharMingen) intravenously.
To investigate additional methods for increased human hepatocyte engraftment, two approaches used in the liver xenograft field were tested: monocrotaline (MCT) and a mouse-specific anti-Fas antigen (CD95) antibody. MCT is a pyrrolizidine plant alkaloid with known endothelial toxicity in the lung, liver, and kidney. […] The anti-CD95 antibody recognizes mouse Fas and leads to cytolytic activity of cells expressing mouse Fas by inducing apoptosis of mouse hepatocytes and other cells.
(§1) All recipient mice were males, age 6-10 weeks, and they were anesthetized by isoflurane inhalation in a closed ventilation chamber. For intrasplenic injection, an incision was made on mouse left paralumbar fossa in order to expose the spleen. […] The exposed spleen was returned to the abdominal cavity and the incision was closed with an absorbable suture (4-0 Vicryl). Vet Bond was applied topically to seal the skin incision. For partial hepatectomy, median-line incision was made to expose the liver. The median lobe of the liver and the left lateral lobe were seemly tied off with 4-0 silk Blake braided suture and excised. Two-thirds of the total liver was removed by partial hepatectomy. The remaining liver was gently returned to the abdominal cavity. […]
For orientation: An ELISA detects its analyte on a solid surface through an enzyme-linked reagent.

The test system of experiment [2] is NSG-PiZ mice. Put plainly: Percentage of human hepatocytes in engrafted mouse liver (flow cytometry, anti-HLA-ABC / CD324). The experiment is classed as in vivo. The following applies: MCT-treated NSG-PiZ mice; flow cytometry with anti-HLA antibody. On the procedure: After dissociation, cells were stained on ice for 30 minutes with anti-mouse/human CD324 (Biolegend) and anti-HLA-ABC (BD Biosciences) antibodies to determine human hepatocyte percentage. Cells were then washed twice with 1×PBS and resuspended in 1×PBS supplemented with 0.5% FHS and 2 mM EDTA. Cells were acquired using FACS-LSRII flow cytometer (BD Biosciences) and analyzed with FlowJo software (version 10.1; Tree Star Inc.).
as §1, with “cavity. Finally, the opposing sections of the abdominal wall were aligned at the ventral midline, and an absorbable suture (4-0 Vicryl) was applied to close the incision.” for “cavity.”

Regarding `C[C@H]1C(=O)O[C@@H]2CCN3CC=C(COC(=O)[C@](C)(O)[C@]1(C)O)[C@H]23` [MCT, monocrotaline], the “human hepatocyte engraftment (serum human albumin)” value in the experiment with NSG-PiZ mice [1] (MCT 50 mg/kg before engraftment or 1 μg anti-mouse CD95 antibody at engraftment, versus intrasplenic engraftment alone) is given as “significantly increased”. The “human hepatocyte engraftment (serum human albumin), comparison of groups” value is “greatest engraftment” in the experiment with NSG-PiZ mice [1] and “greatest serum human albumin concentrations” in the experiment on NSG-PiZ mice [1] (listed as monocrotaline). Further, the “hepatocytes of human origin” value with NSG-PiZ mice [2] is “at least 25%”.
